Key:
SKOV3 cells = experiment: Confocal fluorescence microscopy, intracellular localisation with organelle co-stains; format: cell-based, human
Procedure: Imaging took place at the FILM Imperial College London on a LEICA SP5 MP inverted confocal microscope, at 37° C. and under a CO2 supplemented atmosphere. The water objective (63×) was used in all the experiments. Images were processed using the Leica software, Image J and Powerpoint.
Note: in any experiment where a photosensitiser is used on cells, the experiment is done under subdued lighting exposing the cells to as little light as possible and incubating wrapped in foil. Following addition of PS to cells, cells were no longer observed on the microscope.
Cells were plated on a Labt-Tek® 8 Chambered #1.0 Borosilicate Coverglass System. With some cell lines, it is often useful to use an attachment factor (200 μl, 30 mins, 37° C.) to coat the wells first.
Photosensitiser solutions in phenol red free DMEM (10% FBS, 1% P/S, 0.5% DMSO) were prepared fresh and pre-warmed to 37° C. for 15 mins. The cells were washed with media (1×200 μl) before adding the solutions (200 μl per chamber). Unless otherwise stated, the cells were grown over 20 hrs in a humidified atmosphere (37° C., 5% CO2). The cells were washed (2×200 μl) with prewarmed phenol red free DMEM
(§1) Lysotracker® Green DND-26 was diluted according to manufacturers indications (1 mM stock) and further diluted to twice the working concentration in DMEM (10% FBS, 1% P/S). For use for single colour staining, this was diluted with DMEM (10% FBS, 1% P/S) to a final concentration of 1 μM. When it was used for two colour staining with photosensitisers, a 2 μM solution was twice diluted in photosensitiser solution to give a 1 μM final concentration.
The cells were incubated for 15 mins at 4° C. and a further 30 mins at 37° C. before replacing with fresh medium and imaging.
as §1, with “MitoTracker®” for “Lysotracker®”, “Green” for “Green DND-26”
The cells were incubated for 15 mins at 4° C. and a further 1 hr at 37° C. before replacing with fresh medium and imaging.
ER-Tracker™ Green (BODIPY® FL glibenclamide) was diluted according to manufacturer's indications (1 mM stock) and further diluted to twice the working concentration in HBSS buffer (+2% HEPES). For use for single colour staining, this was diluted with HBSS (+2% HEPES) to a final concentration of 3 μM. When it was used for two colour staining with photosensitisers, a 6 μM solution was twice diluted in photosensitiser solution to give a 3 μM final concentration.
The cells were incubated for 15 mins at 4° C. and a further 1 hr at 37° C. before replacing with fresh buffer and imaging.
Bodipy® FL C5-ceramide complexed to BSA was diluted according to manufacturer's indications (0.5 mM stock) and further diluted to twice the working concentration in HBSS buffer (+2 HEPES). For use for single colour staining, this was diluted with HBSS (+2% HEPES) to a final concentration of 5 μM. When it was used for two colour staining with photosensitisers, a 10 μM solution was twice diluted in photosensitiser solution to give a 5 μM final concentration. The cells were incubated for 15 mins at 4° C. and a further 30 mins at 37° C. before washing with cold HBSS/HEPES (3×100 μl) and replacing with either HBSS/HEPES or photosensitiser solution and incubating at 37° C. for a further 30 mins before replacing with fresh buffer and imaging.

SKOV3 tumours = experiment: PDT therapy in SKOV3 tumour mice; format: in vivo, BALB/c nude mice
Procedure: (§2) Female BALB/c nude mice (aged 6-8 weeks old) were implanted with 10^7 SKOV3 tumour cells mixed in 0.1 ml of ice-cold matrigel subcutaneously and the tumours were allowed to grow for 3-6 weeks as xenografts. Mice were maintained in IVC cages (individually-vented cages) in a clean room. Samples were injected in a volume of 0.1 ml, intravenously via the lateral tail vein and the mice were maintained in low light with full food and water (irradiated). At various time points (1-24 hr), mice were culled by cardiac puncture under terminal anesthesia and blood and tissues collected. All the tissues were counted for radioactivity by gamma counting and weighed.
Tumours were set up as described above and injected (iv into the mouse tail vein) with 0.2 ml of free PPa-PEG1 (0.1 mg=33 micromolar concentration) PS on day 1 and day 4. Based on the tumour uptake (see FIG. 10), an HPD laser was used to illuminate the tumours for 20 minutes at 0.5 W after 4 hrs. The mice were anaesthetized beforehand. Laser treatment followed each drug cycle. The tumours were followed for 3 weeks and the % increase in tumour size was plotted (day 0=100%) (see FIG. 12).
Tumours (groups of 6 mice) were set up as described above and injected (iv into the mouse tail vein) with 0.2 ml of C6-PPa-PEG PIC or free PPa-PEG1 PS (1 mg/ml PIC=33 micomolar concentration scFv or 330 micromolar PPa-PEG) on day 1 and day 4. […]

SKOV3 tumour = experiment: Tumour uptake and tumour:blood ratio of radiolabelled photosensitisers and PICs; format: in vivo, BALB/c nude mice; conditions: mouse, in vivo
Procedure: as §2
The PS (PPa and PPa-PEG) were chemically coupled to C6 scFv, radiolabelled with iodogen as before, but dialysed against 3×5 L of PBS to remove the free iodine and injected into BALB/c nude mice with SKOV3 tumours as above. Tissues were dissected and counted as above.
The tumours were counted for radioactivity and expressed as % of the injected dose/g of tumour tissue (FIG. 10).
The percentage PS in the tumour was divided by the percentage in the blood (gram for gram) to give a targeting or tumour:blood ratio (the higher the better). This plotted in FIG. 11. A high tumour:blood ratio means that there is more in the tumour compared to the blood (and other tissues). This is a function of tumour uptake and blood clearance (see FIGS. 9 and 10).

CCC1=C(C)c2cc3[nH]c(c(C)c3CC)c(C#CCCCC(=O)ON3C(=O)CCC3=O)c3nc(c4c5[nH]c(cc1n2)c(C)c5C(=O)C4)[C@@H](CCC(=O)OCc1cc(OCCOCCOCCOC)c(OCCOCCOCCOC)c(OCCOCCOCCOC)c1)[C@@H]3C [compound 11, Meso 5-Ethynylhexanoyl succinimido ester pyropheophorbide a-3,4,5-(triethylene glycolmonomethylether) benzyl ester]
golgi localisation (co-localisation with Bodipy ceramide) (SKOV3 cells; FIG. 20): significant yellow staining
mitochondrial localisation (co-localisation with Mito-tracker) (SKOV3 cells; FIG. 21): significant yellow staining
lysosomal localisation (co-localisation with Lyso-tracker) (SKOV3 cells; FIG. 22): some yellow staining
ER localisation (co-localisation with ER-tracker) (SKOV3 cells; FIG. 23): significant yellow staining
tumour regression compared to untreated (Saline) controls (SKOV3 tumours; C6 PPa-PEG therapy: 0.2 ml iv day 1 and day 4, 1 mg/ml PIC or 0.5 mg/ml free PS, laser 20 minutes 0.5 W after 4 hrs, followed 6 weeks): no significant tumour regression
tumour regression compared to untreated (Saline) controls (SKOV3 tumours; PPa-PEG only therapy: 0.2 ml iv (0.1 mg) day 1 and day 4, laser 20 minutes 0.5 W after 4 hrs, followed 3 weeks): no significant tumour regression
tumour accumulation relative to the level of PPa (SKOV3 tumour): about ⅓
